The target in this assay is Syk (356-635 amino acids) catalytic domain (Homo sapiens (Human), UniProt P43405). Description: Inhibition of enzymatic Syk kinase activity (radiometric). It counts as biochemical. To be noted: read-out: IC50 Syk. The source says:
The objective of this assay was to examine by radiometric method the ability of compounds to inhibit Syk kinase enzyme. Syk is capable of phosphorylating substrates such as VAV, LAT, SLP-76, which in turn activate MAPK, PLCγ signaling pathways. […] This in vitro assay tests the ability of syk to phosphorylate a substrate peptide in the presence of ATP. By using a radio-labeled form of ATP, it is possible to measure the amount of phosphorylation of the substrate. The enzyme transfers a radio-labeled phosphate group from γ32 P labeled ATP to pG4T. Briefly the enzyme was incubated with substrate, radio-labeled & cold ATP and substrate in buffer with or without compounds. At the end of the reaction, the reaction mixture was transferred on to a Multiscreen filter plate and unreacted γ^32P ATP was washed off. The filter plate was dried and the radioactivity was measured on a scintillation counter to estimate the incorporated radioactivity on the substrate. The percent inhibition of activity of the enzyme was calculated by comparing counts in the presence and absence of compounds. […] 2.5 μL of 10% DMSO or compound in 10% DMSO was added to the wells in a 96 well V-bottom plate. Optimized concentration of in-house Syk enzyme (different batches of Syk (356-635) kinase domain) were used at optimized concentrations) ranging from 0.035 ng to 7.5 ng/reaction diluted in assay buffer was added to a total volume of 12.5 μL). Compound and protein were incubated for 30 minutes at room temperature on a plate shaker. Ten μL of a substrate mix containing 100 μM ATP (0.25 μL), γ-P^32-ATP (0.1 μL; 10 μCi/μL), pG4T (0.25 μL; 10 mg/mL) and 1× assay buffer (9.4 μL) was added to all the wells. Samples were incubated at 30° C. for 10 minutes after mixing. The reaction was stopped by the addition of 8N HCl (13 μL) containing 100 mM ATP. Thirty μL of sample was transferred to the center of a 2×2 cm^2 Whatman® P81 chromatography paper. After allowing the sample to dry for one minute, the assay squares were washed 3 times for 5 minutes each in ortho-phosphoric acid (0.5%) and once in acetone. Assay squares were dried for 15 minutes in a 30° C. oven and transferred to 96 well optiplate. Microscint-O® reagent (100 μL, Perkin Elmer) was added to each well, the plate was sealed with Topseal®-A microplates and incubated for 10 minutes at room temperature at very low speed on rocker and the plate was read in the Topcount® NXL instrument. The following calculations were made: Fold induction=radioactivity counts (uncorrected values) in positive control/substrate control.

IC50 data for 27 compounds are collected here from US10183944B2 (Asana Biosciences, LLC, priority 2011, dated 2019).

A word on the IC50: it is the midpoint of a concentration-inhibition curve.

As to `N#CCC1CCN(c2ccc(Nc3nc(N4CCCCCC4)nc4cn[nH]c(=O)c34)cn2)CC1` [Example 97, 2-(1-(5-((2-(azepan-1-yl)-5-oxo-5,6-dihydropyrimido[4,5-d]pyridazin-4-yl)amino)pyridin-2-yl)piperidin-4-yl) acetonitrile], the IC50 is > 100 nM.

Take `CC(C)(C#N)N1CCN(c2ccc(Nc3nc(N4CCCCCC4)nc4cn[nH]c(=O)c34)cc2)CC1` [Example 111, 2-(4-(4-((2-(azepan-1-yl)-5-oxo-5,6-dihydropyrimido[4,5-d]pyridazin-4-yl)amino)phenyl)piperazin-1-yl)-2-methylpropanenitrile]: the IC50 is < 50 nM.

`CC(C)(C#N)C1CCN(c2ccc(Nc3nc(-c4ccccc4)nc4cn[nH]c(=O)c34)cc2)CC1` [Example 119, 2-methyl-2-(1-(4-((5-oxo-2-phenyl-5,6-dihydropyrimido[4,5-d]pyridazin-4-yl)amino)phenyl)piperidin-4-yl) propanenitrile]: the concentration for half-maximal inhibition (IC50) was > 100 nM.

As for `O=c1[nH]ncc2nc(-c3ccccc3)nc(Nc3ccc(OC[C@@H]4CO[C@@H](CO)CO4)cc3)c12` [Example 122, 4-((4-(((2S,5S)-5-(hydroxymethyl)-1,4-dioxan-2-yl)methoxy)phenyl)amino)-2-phenylpyrimido[4,5-d]pyridazin-5(6H)-one], the IC50 is > 100 nM.

Take `O=C(O)C1CC12CCN(c1ccc(Nc3nc(-c4ccccc4)nc4cn[nH]c(=O)c34)cn1)CC2` (stereo not drawn) [Example 137, 6-(5-((5-oxo-2-phenyl-5,6-dihydropyrimido[4,5-d]pyridazin-4-yl)amino)pyridin-2-yl)-6-azaspiro[2.5]octane-1-carboxylic acid]: the concentration for half-maximal inhibition (IC50) was > 100 nM.

For the compound `O=C(O)C1CC12CCN(c1ccc(Nc3nc(-c4ccncc4)nc4cn[nH]c(=O)c34)cc1)CC2` (stereo not drawn) [Example 138, 6-(4-((5-oxo-2-(pyridin-4-yl)-5,6-dihydropyrimido[4,5-d]pyridazin-4-yl)amino)phenyl)-6-azaspiro[2.5]octane-1-carboxylic acid], the IC50 is > 100 nM.

Take `N#CC1CCN(c2nc(Nc3ccc(OCCN4CCNCC4)cc3)c3c(=O)[nH]ncc3n2)CC1` [Example 149, 1-(5-oxo-4-((4-(2-(piperazin-1-yl)ethoxy)phenyl)amino)-5,6-dihydropyrimido[4,5-d]pyridazin-2-yl)piperidine-4-carbonitrile]: the IC50 was > 100 nM.

`COc1cccc(-c2nc(Nc3ccc(N4CCC(CC#N)CC4)cc3)c3c(=O)[nH]ncc3n2)c1` [Example 163, 2-(1-(4-((2-(3-methoxyphenyl)-5-oxo-5,6-dihydropyrimido[4,5-d]pyridazin-4-yl)amino)phenyl)piperidin-4-yl)acetonitrile]: the IC50 is > 100 nM.

Take `O=c1[nH]ncc2nc(N3CCOCC3)nc(Nc3ccc(OCCN4CCNCC4)cc3)c12` [Example 176, 2-morpholino-4-((4-(2-(piperazin-1-yl)ethoxy)phenyl)amino)pyrimido[4,5-d]pyridazin-5(6H)-one]: the IC50 was > 100 nM.

With `CC1CN(c2nc(Nc3ccc(OCCN4CCNCC4)cc3)c3c(=O)[nH]ncc3n2)CC(C)O1` (stereo not drawn) [Example 177, 2-(2,6-dimethylmorpholino)-4-((4-(2-(piperazin-1-yl)ethoxy)phenyl)amino) pyrimido[4,5-d]pyridazin-5(6H)-one], the IC50 was > 100 nM.

Turning to `O=c1[nH]ncc2nc(N3CCCCCC3)nc(Nc3ccc(N4CCC(CCCO)CC4)cc3)c12` [Example 194, 2-(azepan-1-yl)-4-((4-(4-(3-hydroxypropyl)piperidin-1-yl)phenyl)amino)pyrimido[4,5-d]pyridazin-5(6H)-one], the 50% inhibitory concentration (IC50) was > 100 nM.

As for `N#CCC1CCN(CCN2CCC(Nc3nc(N4CCCCCC4)nc4cn[nH]c(=O)c34)CC2)CC1` [Example 204, 2-(1-(2-(4-((2-(azepan-1-yl)-5-oxo-5,6-dihydropyrimido[4,5-d]pyridazin-4-yl)amino)piperidin-1-yl)ethyl)piperidin-4-yl)acetonitrile], the IC50 was > 100 nM.

`CCn1nnc(-c2ccc(Nc3nc(N4CCCCCC4)nc4cn[nH]c(=O)c34)cc2)n1` [Example 225, 2-(azepan-1-yl)-4-((4-(2-ethyl-2H-tetrazol-5-yl)phenyl)amino)pyrimido[4,5-d]pyridazin-5(6H)-one]: the IC50 was > 100 nM.

`CCn1nnc(-c2ccc(Nc3nc(N4CCC(CC#N)CC4)nc4cn[nH]c(=O)c34)cc2)n1` [Example 226, 2-(1-(4-((4-(2-ethyl-2H-tetrazol-5-yl)phenyl)amino)-5-oxo-5,6-dihydropyrimido[4,5-d]pyridazin-2-yl)piperidin-4-yl)acetonitrile]: the 50% inhibitory concentration (IC50) is > 100 nM.

`N#CCN1CCN(c2nc(Nc3ccc(OCCN4CCNCC4)cc3)c3c(=O)[nH]ncc3n2)CC1` [Example 230, 2-(4-(5-oxo-4-((4-(2-(piperazin-1-yl)ethoxy)phenyl)amino)-5,6-dihydropyrimido[4,5-d]pyridazin-2-yl)piperazin-1-yl)acetonitrile]: the IC50 is > 100 nM.

Consider `N#CCC1CCN(c2nc(Nc3ccc(-c4nnn(CC(=O)O)n4)cc3)c3c(=O)[nH]ncc3n2)CC1` [Example 241, 2-(5-(4-((2-(4-(cyanomethyl)piperidin-1-yl)-5-oxo-5,6-dihydropyrimido[4,5-d]pyridazin-4-yl)amino)phenyl)-2H-tetrazol-2-yl)acetic acid], for which the IC50 is > 100 nM.

In the case of `N#CCC1CCN(c2nc(Nc3ccc(N4CCN(CCN)CC4)cc3)c3c(=O)[nH]ncc3n2)CC1` [Example 257, 2-(1-(4-((4-(4-(2-aminoethyl)piperazin-1-yl)phenyl)amino)-5-oxo-5,6-dihydropyrimido[4,5-d]pyridazin-2-yl)piperidin-4-yl)acetonitrile], the IC50 is < 10 nM.

As to `O=c1[nH]ncc2nc(N3CCCCCC3)nc(Nc3ccc(N4CCC5(CC4)CC5CO)cc3)c12` (stereo not drawn) [Example 258, 2-(azepan-1-yl)-4-((4-(1-(hydroxymethyl)-6-azaspiro[2.5]octan-6-yl)phenyl)amino) pyrimido[4,5-d]pyridazin-5(6H)-one], the IC50 was < 100 nM.

As for `O=c1[nH]ncc2nc(N3CCCCCC3)nc(Nc3ccc(N4CCC(F)(F)CC4)cc3)c12` [Example 279, 2-(azepan-1-yl)-4-((4-(4,4-difluoropiperidin-1-yl)phenyl)amino) pyrimido[4,5-d]pyridazin-5(6H)-one], the concentration for half-maximal inhibition (IC50) was > 100 nM.

For the compound `O=c1[nH]ncc2nc(N3CCCCCC3)nc(Nc3ccc(OCCCO)cc3)c12` [Example 296, 2-(azepan-1-yl)-4-((4-(3-hydroxypropoxy)phenyl)amino)pyrimido[4,5-d]pyridazin-5(6H)-one], the IC50 is < 100 nM.

Regarding `O=c1[nH]ncc2nc(N3CCCCCC3)nc(Nc3ccc(N4CCC(CCF)CC4)cc3)c12` [Example 298, 2-(azepan-1-yl)-4-((4-(4-(2-fluoroethyl)piperidin-1-yl)phenyl)amino) pyrimido[4,5-d]pyridazin-5-(6H)-one], the IC50 is > 100 nM.

As to `COc1cc(Nc2nc(N3CCC(CC#N)CC3)nc3cn[nH]c(=O)c23)cc(OC)c1` [Example 300, 2-(1-(4-((3,5-dimethoxyphenyl)amino)-5-oxo-5,6-dihydropyrimido[4,5-d]pyridazin-2-yl)piperidin-4-yl)acetonitrile], the IC50 was > 100 nM.

Consider `N#CCC1CCN(c2nc(Nc3ccc(OC(F)(F)F)cc3)c3c(=O)[nH]ncc3n2)CC1` [Example 301, 2-(1-(5-oxo-4-((4-(trifluoromethoxy)phenyl)amino)-5,6-dihydropyrimido[4,5-d]pyridazin-2-yl)piperidin-4-yl) acetonitrile], for which the 50% inhibitory concentration (IC50) was > 100 nM.

Turning to `O=c1[nH]ncc2nc(N3CCCCCC3)nc(Nc3ccc(OC(F)(F)F)cc3)c12` [Example 303, 2-(azepan-1-yl)-4-((4-(trifluoromethoxy)phenyl)amino)pyrimido[4,5-d]pyridazin-5(6H)-one], the half-maximal inhibitory concentration (IC50) is > 100 nM.

Regarding `O=c1[nH]ncc2nc(N3CCCCCC3)nc(Nc3cccc(CO)c3)c12` [Example 310, 2-(azepan-1-yl)-4-((3-(hydroxymethyl)phenyl)amino)pyrimido[4,5-d]pyridazin-5(6H)-one], the IC50 is > 100 nM.

Turning to `N#CCC1CCN(c2nc(Nc3cccc(CO)c3)c3c(=O)[nH]ncc3n2)CC1` [Example 311, 2-(1-(4-((3-(hydroxymethyl)phenyl)amino)-5-oxo-5,6-dihydropyrimido[4,5-d]pyridazin-2-yl)piperidin-4-yl) acetonitrile], the concentration for half-maximal inhibition (IC50) was > 100 nM.

Consider `O=c1[nH]ncc2nc(N3CCCCCC3)nc(Nc3ccc(F)cc3)c12` [Example 313, 2-(azepan-1-yl)-4-((4-fluorophenyl)amino)pyrimido[4,5-d]pyridazin-5(6H)-one], for which the IC50 was > 100 nM.
